In the supplement of paper PMC10307832:

Experiments:
Test in all cases: relative viability (nuclei count vs DMSO), 5 days (fraction); higher = more cells survive
Sorafenib = compound: CNC(=O)c1cc(Oc2ccc(NC(=O)Nc3ccc(Cl)c(C(F)(F)F)c3)cc2)ccn1 [Sorafenib]
How it was run: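 A plate was accepted only when its control CV was below 25% and the cells had doubled at least once. Viability is defined from nuclear counts as treated wells divided by vehicle wells, with the median taken across plates. That median covers lung cancer cell lines grown in 1536-well plates, dosed by pinning at five √10-spaced library-drug concentrations, and counted in MetaXpress from 4× Hoechst images after 5 days.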

Sorafenib + Foretinib = compound: CNC(=O)c1cc(Oc2ccc(NC(=O)Nc3ccc(Cl)c(C(F)(F)F)c3)cc2)ccn1 [Sorafenib] + COc1cc2c(Oc3ccc(NC(=O)C4(C(=O)Nc5ccc(F)cc5)CC4)cc3F)ccnc2cc1OCCCN1CCOCC1 [Foretinib] (partner 0.25 µM)
How it was run: (§1)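 Lung cancer cell lines in 1536-well plates were dosed by pin tool the day after seeding, either with one drug alone or with a fixed anchor-drug dose plus five library-drug doses (not always all listed) in √10 steps. After 5 days, cells were fixed and their nuclei stained in one step (final 0.05% Triton X-100, 1% formaldehyde, 1 ug/ml Hoechst), then counted on 4× images. Relative viability is the nuclei count in treated wells divided by that in vehicle wells. Values are medians of duplicate plates.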

Sorafenib + Decitabine = compound: CNC(=O)c1cc(Oc2ccc(NC(=O)Nc3ccc(Cl)c(C(F)(F)F)c3)cc2)ccn1 [Sorafenib] + Nc1ncn([C@H]2C[C@H](O)[C@@H](CO)O2)c(=O)n1 [Decitabine] (partner 2 µM)
How it was run: as §1

Sorafenib + Olaparib = compound: CNC(=O)c1cc(Oc2ccc(NC(=O)Nc3ccc(Cl)c(C(F)(F)F)c3)cc2)ccn1 [Sorafenib] + O=C(c1cc(Cc2n[nH]c(=O)c3ccccc23)ccc1F)N1CCN(C(=O)C2CC2)CC1 [Olaparib] (partner 8 µM)
How it was run: as §1

Sorafenib + Phenformin = compound: CNC(=O)c1cc(Oc2ccc(NC(=O)Nc3ccc(Cl)c(C(F)(F)F)c3)cc2)ccn1 [Sorafenib] + N=C(N)NC(=N)NCCc1ccccc1 [Phenformin] (partner 250 µM)
How it was run: as §1

Sorafenib + Alpelisib = compound: CNC(=O)c1cc(Oc2ccc(NC(=O)Nc3ccc(Cl)c(C(F)(F)F)c3)cc2)ccn1 [Sorafenib] + Cc1nc(NC(=O)N2CCC[C@H]2C(N)=O)sc1-c1ccnc(C(C)(C)C(F)(F)F)c1 [Alpelisib] (partner 2 µM)
How it was run: as §1

Sorafenib + Lapatinib = compound: CNC(=O)c1cc(Oc2ccc(NC(=O)Nc3ccc(Cl)c(C(F)(F)F)c3)cc2)ccn1 [Sorafenib] + CS(=O)(=O)CCNCc1ccc(-c2ccc3ncnc(Nc4ccc(OCc5cccc(F)c5)c(Cl)c4)c3c2)o1 [Lapatinib] (partner 2 µM)
How it was run: as §1

Sorafenib + Linsitinib = compound: CNC(=O)c1cc(Oc2ccc(NC(=O)Nc3ccc(Cl)c(C(F)(F)F)c3)cc2)ccn1 [Sorafenib] + C[C@]1(O)C[C@@H](c2nc(-c3ccc4ccc(-c5ccccc5)nc4c3)c3c(N)nccn32)C1 [Linsitinib] (partner 1 µM)
How it was run: as §1

Sorafenib + Pictilisib = compound: CNC(=O)c1cc(Oc2ccc(NC(=O)Nc3ccc(Cl)c(C(F)(F)F)c3)cc2)ccn1 [Sorafenib] + CS(=O)(=O)N1CCN(Cc2cc3nc(-c4cccc5[nH]ncc45)nc(N4CCOCC4)c3s2)CC1 [Pictilisib] (partner 1 µM)
How it was run: as §1

Sorafenib + Navitoclax = compound: CNC(=O)c1cc(Oc2ccc(NC(=O)Nc3ccc(Cl)c(C(F)(F)F)c3)cc2)ccn1 [Sorafenib] + CC1(C)CCC(c2ccc(Cl)cc2)=C(CN2CCN(c3ccc(C(=O)NS(=O)(=O)c4ccc(N[C@H](CCN5CCOCC5)CSc5ccccc5)c(S(=O)(=O)C(F)(F)F)c4)cc3)CC2)C1 [Navitoclax] (partner 0.5 µM)
How it was run: as §1

Sorafenib + Crizotinib = compound: CNC(=O)c1cc(Oc2ccc(NC(=O)Nc3ccc(Cl)c(C(F)(F)F)c3)cc2)ccn1 [Sorafenib] + C[C@@H](Oc1cc(-c2cnn(C3CCNCC3)c2)cnc1N)c1c(Cl)ccc(F)c1Cl [Crizotinib] (partner 1 µM)
How it was run: as §1

Sorafenib + Bortezomib = compound: CNC(=O)c1cc(Oc2ccc(NC(=O)Nc3ccc(Cl)c(C(F)(F)F)c3)cc2)ccn1 [Sorafenib] + CC(C)C[C@H](NC(=O)[C@H](Cc1ccccc1)NC(=O)c1cnccn1)B(O)O [Bortezomib] (partner 0.002 µM)
How it was run: as §1

| Cell Line | relative viability (Sorafenib; 0.08 µM) | relative viability (Sorafenib; 0.253 µM) | relative viability (Sorafenib; 8 µM) | relative viability (Sorafenib + Foretinib; first compound 0.08 µM) | relative viability (Sorafenib + Foretinib; first compound 0.253 µM) | relative viability (Sorafenib + Foretinib; first compound 2.53 µM) | relative viability (Sorafenib + Foretinib; first compound 8 µM) | relative viability (Sorafenib + Olaparib; first compound 0.08 µM) | relative viability (Sorafenib + Olaparib; first compound 2.53 µM) | relative viability (Sorafenib + Olaparib; first compound 8 µM) | relative viability (Sorafenib + Alpelisib; first compound 0.08 µM) | relative viability (Sorafenib + Alpelisib; first compound 0.253 µM) | relative viability (Sorafenib + Alpelisib; first compound 2.53 µM) | relative viability (Sorafenib + Alpelisib; first compound 8 µM) | relative viability (Sorafenib + Lapatinib; first compound 0.08 µM) | relative viability (Sorafenib + Lapatinib; first compound 2.53 µM) | relative viability (Sorafenib + Lapatinib; first compound 8 µM) | relative viability (Sorafenib + Linsitinib; first compound 2.53 µM) | relative viability (Sorafenib + Linsitinib; first compound 8 µM) | relative viability (Sorafenib + Pictilisib; first compound 0.08 µM) | also measured |
| --- | --- | --- | --- | --- | --- | --- | --- | --- | --- | --- | --- | --- | --- | --- | --- | --- | --- | --- | --- | --- | --- |
| A549 | 1.07 | 0.921 | 0.523 | 0.904 | 0.893 | 0.896 | 0.584 | 0.496 | 0.302 | 0.208 | 0.803 | 0.664 | 0.735 | 0.453 | 1.02 | 0.962 | 0.208 | 0.512 | 0.341 | 0.631 | relative viability (Sorafenib + Decitabine; first compound 0.08 µM): 0.233; relative viability (Sorafenib + Decitabine; first compound 0.253 µM): 0.34; relative viability (Sorafenib + Decitabine; first compound 2.53 µM): 0.218; relative viability (Sorafenib + Decitabine; first compound 8 µM): 0.245; relative viability (Sorafenib + Olaparib; first compound 0.253 µM): 0.289; relative viability (Sorafenib + Phenformin; first compound 0.08 µM): 0.213; relative viability (Sorafenib + Phenformin; first compound 0.253 µM): 0.158; relative viability (Sorafenib + Phenformin; first compound 2.53 µM): 0.193; relative viability (Sorafenib + Phenformin; first compound 8 µM): 0.0523; relative viability (Sorafenib + Linsitinib; first compound 0.253 µM): 0.622; relative viability (Sorafenib + Pictilisib; first compound 0.253 µM): 0.5; relative viability (Sorafenib + Pictilisib; first compound 2.53 µM): 0.412; relative viability (Sorafenib + Pictilisib; first compound 8 µM): 0.116 |
| Calu-6 | 1.06 | 0.959 | 0.711 | 0.973 | 0.852 | 0.816 | 0.622 | 0.538 | 0.531 | 0.306 | 0.923 | 0.954 | 0.948 | 0.487 | 1.04 | 0.99 | 0.378 | 0.904 | 0.778 | 0.964 | relative viability (Sorafenib; 2.53 µM): 0.925; relative viability (Sorafenib + Navitoclax; first compound 0.08 µM): 0.887; relative viability (Sorafenib + Navitoclax; first compound 0.253 µM): 0.794; relative viability (Sorafenib + Navitoclax; first compound 2.53 µM): 0.724; relative viability (Sorafenib + Navitoclax; first compound 8 µM): 0.457; relative viability (Sorafenib + Crizotinib; first compound 0.08 µM): 0.928; relative viability (Sorafenib + Crizotinib; first compound 0.253 µM): 0.735; relative viability (Sorafenib + Crizotinib; first compound 2.53 µM): 0.679; relative viability (Sorafenib + Crizotinib; first compound 8 µM): 0.366; relative viability (Sorafenib + Lapatinib; first compound 0.253 µM): 0.984; relative viability (Sorafenib + Linsitinib; first compound 0.08 µM): 0.885; relative viability (Sorafenib + Bortezomib; first compound 0.08 µM): 0.948; relative viability (Sorafenib + Bortezomib; first compound 0.253 µM): 0.936; relative viability (Sorafenib + Bortezomib; first compound 2.53 µM): 0.934; relative viability (Sorafenib + Bortezomib; first compound 8 µM): 0.61; relative viability (Sorafenib + Pictilisib; first compound 0.253 µM): 0.805; relative viability (Sorafenib + Pictilisib; first compound 2.53 µM): 0.864; relative viability (Sorafenib + Pictilisib; first compound 8 µM): 0.351 |
| EBC-1 | 1.05 | 0.904 | 0.812 | 0.092 | 0.1 | 0.11 | 0.114 | 0.717 | 0.594 | 0.557 | 0.875 | 0.769 | 0.89 | 0.623 | 0.203 | 0.226 | 0.208 | 0.931 | 0.625 | 0.371 | relative viability (Sorafenib; 2.53 µM): 0.929; relative viability (Sorafenib + Navitoclax; first compound 0.08 µM): 0.568; relative viability (Sorafenib + Navitoclax; first compound 2.53 µM): 0.42; relative viability (Sorafenib + Navitoclax; first compound 8 µM): 0.451; relative viability (Sorafenib + Olaparib; first compound 0.253 µM): 0.543; relative viability (Sorafenib + Crizotinib; first compound 0.08 µM): 0.189; relative viability (Sorafenib + Crizotinib; first compound 0.253 µM): 0.176; relative viability (Sorafenib + Crizotinib; first compound 2.53 µM): 0.202; relative viability (Sorafenib + Crizotinib; first compound 8 µM): 0.203; relative viability (Sorafenib + Lapatinib; first compound 0.253 µM): 0.219; relative viability (Sorafenib + Linsitinib; first compound 0.253 µM): 0.732; relative viability (Sorafenib + Bortezomib; first compound 0.08 µM): 0.575; relative viability (Sorafenib + Bortezomib; first compound 0.253 µM): 0.481; relative viability (Sorafenib + Bortezomib; first compound 2.53 µM): 0.521; relative viability (Sorafenib + Bortezomib; first compound 8 µM): 0.405; relative viability (Sorafenib + Pictilisib; first compound 0.253 µM): 0.419; relative viability (Sorafenib + Pictilisib; first compound 2.53 µM): 0.355; relative viability (Sorafenib + Pictilisib; first compound 8 µM): 0.287 |
